{"source": "paper PMC10567702", "about": "“A concerted ATPase cycle of the protein transporter AAA-ATPase Bcs1” (Nature Communications, 2023)", "key": {"[1]": {"molecular_target": "T1, Bcs1 (mBcs1) (Mus musculus, UniProt Q9CZP5)", "T1 construct": "gene Bcs1l; full length residues 1-418, C-terminal hexa-His tag, expressed in Pichia pastoris, purified in DDM, homo-heptamer; reconstituted in soy polar lipid membranes for HS-AFM", "T1 sequence (Q9CZP5 1-418)": "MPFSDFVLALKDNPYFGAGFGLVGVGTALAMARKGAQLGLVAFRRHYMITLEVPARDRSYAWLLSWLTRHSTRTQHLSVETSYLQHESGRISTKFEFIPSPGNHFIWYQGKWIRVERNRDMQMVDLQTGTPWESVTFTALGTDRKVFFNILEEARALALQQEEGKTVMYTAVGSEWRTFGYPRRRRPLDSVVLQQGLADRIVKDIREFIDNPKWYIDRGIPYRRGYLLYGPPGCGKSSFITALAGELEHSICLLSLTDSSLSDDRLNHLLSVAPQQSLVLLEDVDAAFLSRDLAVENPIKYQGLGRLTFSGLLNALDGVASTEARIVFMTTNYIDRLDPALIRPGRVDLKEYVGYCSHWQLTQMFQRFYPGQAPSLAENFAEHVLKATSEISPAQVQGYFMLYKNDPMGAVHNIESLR", "assay": "microscale thermophoresis, RED-tris-NTA labelled Bcs1", "assay_type": "binding"}, "[2]": {"molecular_target": "T1, Bcs1 (mBcs1)", "assay": "HS-AFM imaging, probability of AMP-PNP conformation, Hill fit", "assay_type": "binding"}, "[3]": {"molecular_target": "T1, Bcs1 (mBcs1)", "assay": "HS-AFM imaging, conformational change on binding", "conditions": "10 µM ATPγS; reconstituted membranes; 10 mM HEPES pH 7.5, 200 mM NaCl, 2 mM MgCl2; ambient temperature"}}, "note": "pEC50, pKd: −log10 of the molar value.", "data": [{"molecule": "Nc1ncnc2c1ncn2[C@@H]1O[C@H](COP(=O)(O)OP(=O)(O)O)[C@@H](O)[C@H]1O", "note": "[ADP]", "values": [{"measurement": "pKd", "setting": "[1]", "value": "~6.30"}]}, {"molecule": "Nc1ncnc2c1ncn2[C@@H]1O[C@H](COP(=O)(O)OP(=O)(O)NP(=O)(O)O)[C@@H](O)[C@H]1O", "note": "[AMP-PNP]", "values": [{"measurement": "pEC50", "setting": "[2]", "value": "~5.40"}]}, {"molecule": "Nc1ncnc2c1ncn2[C@@H]1O[C@H](COP(=O)(O)OP(=O)(O)OP(O)(O)=S)[C@@H](O)[C@H]1O", "note": "[ATPγS]", "values": [{"measurement": "HS-AFM imaging, conformational change on binding", "setting": "[3]", "value": "In the presence of ATPγS however, instead of a ring structure, we found a rather flat disk"}]}]}
